Patent US9351998B2, “Methods of nourishing animals” (MariCal, Inc., priority 2008, dated 2016)

Experiment: Nonstressed pen trial, serum parameters of broiler chickens given feed additives
Format: in vivo, broiler chickens (Cobb)
Conditions: feed additive, MC0100 10 mg/kg or Mintrex Zn 250 mg/kg, Day 14
From the text: Male Cobb strain broiler chickens were reared in standard minipens and fed standard feed.

## COc1cccc([C@@H](C)NCCCc2ccccc2)c1 [MC0100]
  mean serum calcium concentration compared to Control: significant reductions
